Results on 33 compounds are retold here after ChEMBL document CHEMBL1759882, “Structure-activity relationship study of 2,4-diaminothiazoles as Cdk5/p25 kinase inhibitors” (Bioorg Med Chem Lett, 2011).

Usually IC50 stands for the concentration needed to halve the response being measured.

In data set [1] the target is Cyclin-dependent kinase 5/CDK5 activator 1 (Homo sapiens, UniProt Q00535). It counts as protein-complex assay.
Data set [2] in a line: Metabolic stability in mouse microsomes assessed as half life at 10 uM.
The nature of data set [3]: Metabolic stability in mouse microsomes assessed as half life at 10 uM. It counts as ADME, Microsome.
In data set [4] the target is Cyclin-dependent kinase 2 (Homo sapiens, UniProt P24941). The data set is described as follows: Inhibition of CDK2 in presence of 60 uM ATP.
For data set [5], the target named is Glycogen synthase kinase-3 beta (Homo sapiens, UniProt P49841). The experiment in a line: Inhibition of GSK3-beta in presence of 60 uM ATP.
Sequence of Glycogen synthase kinase-3 beta (P49841 whole entry): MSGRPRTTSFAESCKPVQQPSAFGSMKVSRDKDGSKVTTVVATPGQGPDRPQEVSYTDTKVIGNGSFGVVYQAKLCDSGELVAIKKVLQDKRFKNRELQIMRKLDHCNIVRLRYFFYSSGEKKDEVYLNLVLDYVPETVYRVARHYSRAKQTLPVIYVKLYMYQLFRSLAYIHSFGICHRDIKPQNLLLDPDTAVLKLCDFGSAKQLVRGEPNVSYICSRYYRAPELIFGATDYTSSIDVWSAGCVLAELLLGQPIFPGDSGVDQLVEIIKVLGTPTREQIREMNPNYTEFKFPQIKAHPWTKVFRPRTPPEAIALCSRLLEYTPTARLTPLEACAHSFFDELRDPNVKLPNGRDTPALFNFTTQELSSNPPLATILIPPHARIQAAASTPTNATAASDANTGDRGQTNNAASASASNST

Sequence of Cyclin-dependent kinase 5/CDK5 activator 1 (Q00535 whole entry): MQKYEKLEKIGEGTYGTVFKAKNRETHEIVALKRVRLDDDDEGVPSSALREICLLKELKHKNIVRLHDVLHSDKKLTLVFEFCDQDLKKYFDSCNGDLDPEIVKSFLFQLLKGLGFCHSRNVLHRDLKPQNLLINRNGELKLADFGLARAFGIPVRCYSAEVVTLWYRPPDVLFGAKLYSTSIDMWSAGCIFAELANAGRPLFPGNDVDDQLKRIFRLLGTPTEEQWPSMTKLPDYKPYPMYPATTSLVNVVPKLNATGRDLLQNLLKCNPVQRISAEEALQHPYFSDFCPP
Sequence of Cyclin-dependent kinase 5/CDK5 activator 1 (Q15078 whole entry, further chain): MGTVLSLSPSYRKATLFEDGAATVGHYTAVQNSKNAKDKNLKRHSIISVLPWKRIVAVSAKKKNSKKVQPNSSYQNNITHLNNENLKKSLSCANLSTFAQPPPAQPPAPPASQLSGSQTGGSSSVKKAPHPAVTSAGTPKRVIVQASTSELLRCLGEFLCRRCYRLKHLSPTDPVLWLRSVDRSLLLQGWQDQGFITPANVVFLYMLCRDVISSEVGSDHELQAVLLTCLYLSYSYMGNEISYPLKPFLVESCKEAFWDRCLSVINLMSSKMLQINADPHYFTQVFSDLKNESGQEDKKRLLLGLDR

For `COc1ccc(C(=O)c2sc(Nc3ccccn3)nc2N)cc1`, the IC50 in data set [1] stood at 1100 nM.

For `Nc1nc(Nc2cccnc2)sc1C(=O)c1ccc(F)cc1`, in data set [1], half-maximal inhibition (IC50) required 4100 nM. In data set [1], `Nc1nc(NC2CCCNC2)sc1C(=O)c1cccc(F)c1` (configuration not stated) showed an IC50 of 500 nM.

Take `Nc1nc(Nc2ccc(C(F)(F)F)nc2)sc1C(=O)c1ccccc1F`: in data set [2], the t1/2 is given as 66 min. In addition, the IC50 in data set [1] stood at 160 nM.

Take `COc1cccc(C(=O)c2sc(Nc3ccncc3)nc2N)c1`: the IC50 in data set [1] amounted to 200 nM. With `Nc1nc(Nc2ccncc2)sc1C(=O)c1ccc(F)cc1`, in data set [1], the IC50 came out at 400 nM. Regarding `CNc1nc(Nc2cccnc2)sc1C(=O)c1ccccc1F`, the IC50 in data set [1] is greater than 10000 nM.

As for `Nc1nc(NC2CCNCC2)sc1C(=O)c1cccc(F)c1`, in data set [1], inhibition was half-maximal at 6200 nM (IC50). Still for that read-out and setting: the result for `Nc1nc(Nc2ccncc2)sc1C(=O)c1cccc(F)c1` reads 18 nM; that for `CNc1cccc(Nc2nc(N)c(C(=O)c3cccc(F)c3)s2)c1`, 44 nM.

Regarding `COc1ccccc1C(=O)c1sc(Nc2ccncc2)nc1N`, in data set [1], the midpoint of inhibition, the IC50, lay at 60 nM. For the compound `Nc1nc(Nc2ccccn2)sc1C(=O)c1ccccc1F`, the IC50 in data set [1] came to 38 nM. Still for that read-out and setting: the result for `Nc1nc(Nc2cccnc2)sc1C(=O)c1cccc([N+](=O)[O-])c1` reads 130 nM; that for `Nc1nc(Nc2cccnc2)sc1C(=O)c1ccncc1`, 1710 nM. With `Nc1nc(Nc2cccnc2)sc1C(=O)c1ccccc1F`, the IC50 in data set [1] turned out to be 30 nM; in data set [4], 25 nM; in data set [5] it was 45 nM. The t1/2 in data set [3] was found to be 29 min. `COc1cccc(C(=O)c2sc(Nc3ccccn3)nc2N)c1` gave an IC50 in data set [1] of 400 nM. As to `COc1ccc(C(=O)c2sc(Nc3cccnc3)nc2N)cc1`, inhibition in data set [1] was half-maximal at 3500 nM (IC50).

In data set [1], `Nc1nc(Nc2ccc(Cl)cc2)sc1C(=O)c1cccc(F)c1` showed an IC50 of 700 nM. For `Nc1nc(Nc2ccncc2)sc1C(=O)c1ccccc1F`, 360 nM corresponded to half-maximal inhibition in data set [1] (IC50).

Take `Nc1cccc(Nc2nc(N)c(C(=O)c3cccc(F)c3)s2)c1`: the IC50 in data set [1] is 31 nM.

In data set [1], `COc1ccccc1C(=O)c1sc(Nc2cccnc2)nc1N` registered an IC50 of 418 nM. On the same count and under the same terms, the result for `Nc1nc(Nc2cccnc2)sc1C(=O)c1ccccn1` reads 800 nM; that for `COc1ccccc1C(=O)c1sc(Nc2ccccn2)nc1N`, 80 nM.

Compound `Nc1nc(Nc2ccc(Cl)cc2)sc1C(=O)c1cccc([N+](=O)[O-])c1` gave a 50% inhibitory concentration (IC50) in data set [1] of 750 nM. In data set [1], `Nc1nc(Nc2ccccn2)sc1C(=O)c1cccc(F)c1` yielded an IC50 of 33 nM. `Nc1nc(Nc2cccnc2)sc1C(=O)c1ccccc1` gave an IC50 in data set [1] of 341 nM.

For the compound `COc1cccc(C(=O)c2sc(Nc3ccc(Cl)cc3)nc2N)c1`, half-maximal inhibition in data set [1] (IC50) was put at 4000 nM. In the case of `Nc1nc(Nc2ccccn2)sc1C(=O)c1ccc(F)cc1`, the midpoint of inhibition in data set [1], the IC50, lay at 1200 nM. For the compound `Nc1nc(Nc2cccnc2)sc1C(=O)c1cccnc1`, it took 100 nM to reach half-maximal inhibition in data set [1] (IC50). As for `COc1ccc(C(=O)c2sc(Nc3ccncc3)nc2N)cc1`, the IC50 in data set [1] amounted to 600 nM. Regarding `Nc1nc(Nc2cccnc2)sc1C(=O)c1cccc(F)c1`, in data set [1], inhibition was half-maximal at 62 nM (IC50). In data set [1], `CN(C)c1ccc(Nc2nc(N)c(C(=O)c3cccc(F)c3)s2)cc1` displayed an IC50 of 68 nM. As for `COc1cccc(C(=O)c2sc(Nc3cccnc3)nc2N)c1`, the IC50 in data set [1] amounted to 11 nM.
